The results in this text go back to PMC3501123 (Journal of medicinal chemistry, 2012).

Data set [1] relates to C57BL/6 mice. Nature of the data set: telemetry of heart rate and body temperature. In kind it is in vivo, mouse. The following applies: 5000 nmol/kg, oral.
A further data set concerns the target human A2AAR (Homo sapiens, UniProt P29274). Nature of the data set: radioligand binding assay.
For a further data set, the target named is T1, human A3AR (Homo sapiens, UniProt P0DMS8).
T1 sequence (P0DMS8 1-318): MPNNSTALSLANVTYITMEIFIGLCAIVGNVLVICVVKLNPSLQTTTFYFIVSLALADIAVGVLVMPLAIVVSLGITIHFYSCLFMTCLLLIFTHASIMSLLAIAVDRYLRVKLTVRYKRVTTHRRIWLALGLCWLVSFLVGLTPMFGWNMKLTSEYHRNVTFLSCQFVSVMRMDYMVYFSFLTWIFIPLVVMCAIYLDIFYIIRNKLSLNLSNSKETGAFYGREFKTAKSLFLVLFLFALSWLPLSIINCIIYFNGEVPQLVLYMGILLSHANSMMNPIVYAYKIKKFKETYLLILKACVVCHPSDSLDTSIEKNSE
Nature of the data set: radioligand binding assay.

A further data set addresses T2, human A2BAR (Homo sapiens, UniProt P29275).
T2 sequence (P29275 1-332): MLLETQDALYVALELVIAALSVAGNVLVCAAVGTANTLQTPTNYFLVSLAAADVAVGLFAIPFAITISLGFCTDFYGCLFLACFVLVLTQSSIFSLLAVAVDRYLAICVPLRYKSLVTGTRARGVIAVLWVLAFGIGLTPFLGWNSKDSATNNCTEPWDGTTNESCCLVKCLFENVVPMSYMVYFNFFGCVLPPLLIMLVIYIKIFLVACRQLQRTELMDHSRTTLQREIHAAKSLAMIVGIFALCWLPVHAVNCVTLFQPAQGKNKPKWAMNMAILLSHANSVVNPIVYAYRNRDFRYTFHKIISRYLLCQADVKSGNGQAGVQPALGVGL
Nature of the data set: radioligand binding assay. The following applies: read-out: % inhibition at A2B, 50 μM.

Data set [2] has as its target T3, human A1AR (Homo sapiens, UniProt P30542).
T3 sequence (P30542 1-326): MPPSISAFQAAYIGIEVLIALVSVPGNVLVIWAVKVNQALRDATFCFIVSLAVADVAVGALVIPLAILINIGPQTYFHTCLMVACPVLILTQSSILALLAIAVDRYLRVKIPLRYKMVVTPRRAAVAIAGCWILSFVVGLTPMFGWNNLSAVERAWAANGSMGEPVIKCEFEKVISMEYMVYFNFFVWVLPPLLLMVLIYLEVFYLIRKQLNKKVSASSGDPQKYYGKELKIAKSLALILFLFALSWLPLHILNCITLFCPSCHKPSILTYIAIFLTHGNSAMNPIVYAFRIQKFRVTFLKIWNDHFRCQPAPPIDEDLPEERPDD
In words: cAMP accumulation assay. The class given is cell-based. The settings on record: for agonist efficacy in cAMP accumulation assay: compared to compound 3, highest concentration tested; for effect of αβ-met-ADP on potency: inclusion of 10 μM αβ-met-ADP (NT5E/CD73 inhibitor). A general note: cAMP levels reflect the balance of adenylyl cyclase and phosphodiesterase activity.

The test system of data set [3] is C57BL/6 mice. Nature of the data set: noxious thermal sensitivity, Hargreaves paw withdrawal latency. In kind it is in vivo, mouse.
Data set [4] has as its target T3, human A1AR. Nature of the data set: Ca2+ mobilization assay with chimeric G proteins. The class given is cell-based. The settings on record: Emax normalized to Emax of adenosine.
[5] abbreviates: oral, 50, 500 or 5000 nmol/kg, wild-type mice.

Chain of human A2AAR (P29274 whole entry): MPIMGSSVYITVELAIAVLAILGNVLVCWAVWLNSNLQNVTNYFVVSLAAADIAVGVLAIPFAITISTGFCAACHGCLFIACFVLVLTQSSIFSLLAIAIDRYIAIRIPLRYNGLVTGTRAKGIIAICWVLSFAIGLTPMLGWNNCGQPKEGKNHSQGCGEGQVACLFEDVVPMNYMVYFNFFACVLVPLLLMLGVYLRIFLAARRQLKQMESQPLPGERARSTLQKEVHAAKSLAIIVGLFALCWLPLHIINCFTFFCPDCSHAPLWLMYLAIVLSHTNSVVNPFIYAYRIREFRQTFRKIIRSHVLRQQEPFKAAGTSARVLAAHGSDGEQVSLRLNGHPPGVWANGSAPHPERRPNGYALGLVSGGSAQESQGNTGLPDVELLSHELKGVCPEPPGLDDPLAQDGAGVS

The term inhibition denotes the percentage by which the read-out fell short of the control. Take `COP(=O)(OC)OC[C@H]1O[C@@H](n2cnc3c(NC4CCCC4)nc(Cl)nc32)[C@H](O)[C@@H]1O` [Compound 3a, ((2R,3S,4R,5R)-5-(2-Chloro-6-(cyclopentylamino)-9H-purin-9-yl)-3,4-dihydroxytetrahydrofuran-2-yl)methyl Dimethyl Phosphate]: the “effect on body temperature” value in the data set on C57BL/6 mice [1] (A1AR–/– mice) and in the data set with C57BL/6 mice [1] (wild-type mice) was “negligible effects” each time. Further, the “effect on heart rate” value in the data set with C57BL/6 mice [1] (A1AR–/– mice) and in the data set on C57BL/6 mice [1] (wild-type mice) was “negligible effects” each time. Further, the “selectivity for A1AR over A2AAR” value on human A2AAR is listed as over 100 fold. Further, the “selectivity for A1AR over A3AR” value at human A3AR was over 10 fold. In addition, the inhibition at 50 µM on human A2BAR is under 10%. Also, on human A1AR [2], the “agonist efficacy in cAMP accumulation assay” value is recorded as “full agonist”. Moreover, the “thermal antinociceptive effect in A1AR knockout mice” value in the data set on C57BL/6 mice [3] (A1AR–/– mice, 5 nmol, IT injection) was “completely abolished”. Besides, the “effect on noxious thermal sensitivity” value with C57BL/6 mice [3] (intrathecal (IT) or intravenous (IV) injection, mice) is “marked and dose-dependent inhibition of noxious thermal sensitivity”; in the data set with C57BL/6 mice [3] (setting [5]), “dose-dependently inhibited noxious thermal sensitivity”. Further, the “agonist efficacy in Ca2+ mobilization assay” value on human A1AR [4] is on record as “potent full agonists”.
On to `OC[C@H]1O[C@@H](n2cnc3c(NC4CCCC4)ncnc32)[C@H](O)[C@@H]1O` [Compound 5, N^6-cyclopentyl adenosine, reference compound], for which, in the data set on C57BL/6 mice [1] (A1AR–/– mice), the “effect on body temperature” value is reported as “but not in A1AR^–/– mice” and the “effect on heart rate” value was “modest increase in heart rate”. Also, in the data set with C57BL/6 mice [1] (wild-type mice), the “effect on body temperature” value is recorded as “statistically significant decrease” and the “effect on heart rate” value was “statistically significant decrease”. Further, the “effect on noxious thermal sensitivity” value in the data set on C57BL/6 mice [3] (setting [5]) is listed as “effects of 3a were similar to 5”.
In the case of `O=P([O-])([O-])OC[C@H]1O[C@@H](n2cnc3c(NC4CCCC4)nc(Cl)nc32)[C@H](O)[C@@H]1O.[Na+].[Na+]` [Compound 3d, Sodium ((2R,3S,4R,5R)-5-(2-Chloro-6-(cyclopentylamino)-9H-purin-9-yl)-3,4-dihydroxytetrahydrofuran-2-yl)methyl Phosphate], the “selectivity for A1AR over A2AAR” value on human A2AAR is over 100 fold. Further, at human A3AR, the “selectivity for A1AR over A3AR” value was over 10 fold. Also, the “agonist efficacy in Ca2+ mobilization assay” value at human A1AR [4] is listed as “potent full agonists”.
As for `Nc1ncnc2c1ncn2[C@@H]1O[C@H](CO)[C@@H](O)[C@H]1OP(=O)(O)O` [2′-AMP, adenosine 2′-monophosphate], at human A1AR [2], the “agonist efficacy in cAMP accumulation assay” value was “full agonists” and the “effect of αβ-met-ADP on potency” value is given as “did not significantly alter the potencies”.
In the same order, the values of `Nc1ncnc2c1ncn2[C@@H]1O[C@H](CO)[C@@H](OP(=O)(O)O)[C@H]1O` [3′-AMP, adenosine 3′-monophosphate] are “full agonists” and “did not significantly alter the potencies”.
